According to patent publication US20260234147A1 (priority 2023, published 2026):
Read-outs that look alike come from different tables or passages of the source.

Legend:
hDOR = hDOR (Homo sapiens, UniProt P41143); assay: Radioligand binding assay (Eurofins Cerep), [3H]DADLE displacement
hMOR [1] = target: T1, hMOR (Homo sapiens, UniProt P35372); assay: Radioligand binding assay (Eurofins Cerep), [3H]DAMGO displacement
hMOR [2] = target: T1, hMOR; assay: cell-based; parameters: expressed in transfected cells; conditions: for Emax: CHO
hKOR = hKOR (Homo sapiens, UniProt P41145); assay: Radioligand binding assay (Eurofins Cerep), [3H]U69,593 displacement
hKOR, sequence (P41145 whole entry): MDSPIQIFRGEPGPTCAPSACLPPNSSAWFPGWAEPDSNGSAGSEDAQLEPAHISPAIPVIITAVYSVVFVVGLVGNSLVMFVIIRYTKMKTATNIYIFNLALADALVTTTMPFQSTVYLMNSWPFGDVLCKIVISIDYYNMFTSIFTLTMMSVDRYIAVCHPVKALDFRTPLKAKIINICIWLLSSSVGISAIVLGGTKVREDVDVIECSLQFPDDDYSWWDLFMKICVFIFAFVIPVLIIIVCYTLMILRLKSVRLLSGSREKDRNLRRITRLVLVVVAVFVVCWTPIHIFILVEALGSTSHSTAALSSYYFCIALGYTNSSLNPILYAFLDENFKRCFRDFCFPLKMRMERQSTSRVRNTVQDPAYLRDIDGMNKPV

α2C adrenergic receptor = target: T2, α2C adrenergic receptor (Homo sapiens, UniProt P18825); assay: Radioligand binding assay (Eurofins Cerep), [3H]RX 821002 displacement; conditions: Ki (nM ± SEM) a2C-AR, 3 independent experiments
T2 construct: Eurofins Cerep (contract screening)
T2 sequence (P18825 1-462): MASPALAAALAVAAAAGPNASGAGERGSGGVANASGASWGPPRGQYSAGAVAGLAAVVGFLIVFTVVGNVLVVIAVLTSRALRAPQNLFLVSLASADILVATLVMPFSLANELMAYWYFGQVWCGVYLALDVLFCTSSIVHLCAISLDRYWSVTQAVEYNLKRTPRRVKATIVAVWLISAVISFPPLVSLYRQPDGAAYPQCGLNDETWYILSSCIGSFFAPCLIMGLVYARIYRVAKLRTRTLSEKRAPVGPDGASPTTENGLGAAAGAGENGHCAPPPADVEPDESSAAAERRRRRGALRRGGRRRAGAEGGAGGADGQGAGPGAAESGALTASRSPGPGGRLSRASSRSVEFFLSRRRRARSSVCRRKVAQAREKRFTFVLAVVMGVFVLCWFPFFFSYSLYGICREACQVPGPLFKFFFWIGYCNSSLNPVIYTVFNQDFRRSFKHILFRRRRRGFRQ

α2A adrenergic receptor = target: T3, α2A adrenergic receptor (Homo sapiens, UniProt P08913); assay: as above
T3 construct: Eurofins Cerep (contract screening)
T3 sequence (P08913 1-465): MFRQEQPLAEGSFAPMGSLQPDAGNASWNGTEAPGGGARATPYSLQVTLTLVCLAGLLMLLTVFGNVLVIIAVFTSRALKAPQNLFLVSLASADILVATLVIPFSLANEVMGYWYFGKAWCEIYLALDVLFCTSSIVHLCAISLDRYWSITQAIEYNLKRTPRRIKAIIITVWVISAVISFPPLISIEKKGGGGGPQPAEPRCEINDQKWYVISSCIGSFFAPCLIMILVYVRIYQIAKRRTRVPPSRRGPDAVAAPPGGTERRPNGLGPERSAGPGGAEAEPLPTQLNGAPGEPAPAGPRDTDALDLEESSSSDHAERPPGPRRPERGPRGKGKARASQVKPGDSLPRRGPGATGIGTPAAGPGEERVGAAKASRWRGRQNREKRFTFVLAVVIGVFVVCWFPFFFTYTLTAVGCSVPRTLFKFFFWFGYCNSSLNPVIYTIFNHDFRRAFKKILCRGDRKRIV

[3] = Metabolic stability in rat liver microsomes; format: in vitro ADME; conditions: for Whole liver clearance, CL int, H: in vitro intrinsic clearance in RLM scaled to whole organ (rat); for RLM stability: rat liver microsomes 1 mg/ml, substrate 1 μM, NADPH, 37° C.
Experimental: In vitro metabolic stability of each compound was determined using rat liver microsomes in triplicate. Verapamil was used as a positive control to check the activity of the microsomes. The incubation mixtures consisted of rat liver microsomes (1 mg microsomal protein/ml), substrate (1 μM), and reduced NADPH (1 mM) in a total volume of 0.4 ml potassium phosphate buffer (50 mM, pH 7.4). Reactions were initiated with the addition of NADPH and kept in an incubator shaker at 37° C. Aliquots of 25 μl were withdrawn at 0, 5, 10, 15, 30, and 60 min and mixed with 125 μl of acetonitrile with formic acid (0.1% v/v) containing phenacetin (50 ng/ml; internal standard) for the termination of the reaction. The samples were then vortex mixed and filtered through a […] 96-well membrane filtration plate under centrifugation at speed of 2000×g for 5 min at 4° C. The filtrates were subjected to UPLC-mass spectrometry (MS/MS) analysis.
The intrinsic clearance of the compounds was calculated using a half-life employing the ‘substrate depletion’ approach. The apparent half-life was calculated from the pseudo-first-order rate constants obtained by linear regression of log (concentration) and time plots. The in vitro intrinsic clearance of IFN was estimated using the formula: […]
Where k is the slope of the line obtained by plotting the natural logarithmic of the percentage of parent remaining versus time and V is the volume of incubation.
The in vitro intrinsic clearance was scaled to whole-organ (hepatic) in vivo intrinsic CL (CLint,H) using the scaling factors available in the literature using equation (Mahmood I. Application of allometric principles for the prediction of pharmacokinetics in human and veterinary drug development. Advanced drug delivery reviews, 2007, 59(11), 1177-1192)
MPPGL represents the microsomal protein per gram of Sprague Dawley rat liver (45 mg/g) and liver weight per kg body weight was 40 g/kg.

[4] = Table A1, data summary #1, read-out: DOR Ki ± SEM
[5] = Table A1, data summary #1, read-out: MOR Ki ± SEM
[6] = Table A1, data summary #1, read-out: KOR Ki ± SEM
[7] = Table 3-1, 3 independent experiments, read-out: Ki (nM ± SEM) DOR
[8] = Table 3-7, human MOR, read-out: MOR Ki (nM ± SEM)
[9] = Table 3-1, 3 independent experiments, read-out: Ki (nM ± SEM) KOR
[10] = Table A4, data summary #2, read-out: DOR Ki ± SEM
[11] = Table A4, data summary #2, read-out: MOR Ki ± SEM
[12] = Table A4, data summary #2, read-out: Alpha2A Ki ± SEM
[13] = Table A4, data summary #2, read-out: KOR Ki ± SEM
[14] = Table A1, data summary #1, read-out: Alpha2A Ki ± SEM

T1 sequence (P35372 whole entry): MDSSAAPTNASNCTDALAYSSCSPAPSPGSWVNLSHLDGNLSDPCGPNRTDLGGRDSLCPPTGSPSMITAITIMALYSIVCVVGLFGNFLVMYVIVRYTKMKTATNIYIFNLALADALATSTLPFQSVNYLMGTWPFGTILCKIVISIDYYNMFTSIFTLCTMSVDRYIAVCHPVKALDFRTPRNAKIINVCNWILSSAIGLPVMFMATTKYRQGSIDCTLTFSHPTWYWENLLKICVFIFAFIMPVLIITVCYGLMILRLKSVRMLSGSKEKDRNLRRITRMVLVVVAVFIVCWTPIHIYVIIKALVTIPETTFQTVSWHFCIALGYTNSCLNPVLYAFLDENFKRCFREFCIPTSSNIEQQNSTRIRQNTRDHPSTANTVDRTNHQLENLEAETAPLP
hDOR, sequence (P41143 whole entry): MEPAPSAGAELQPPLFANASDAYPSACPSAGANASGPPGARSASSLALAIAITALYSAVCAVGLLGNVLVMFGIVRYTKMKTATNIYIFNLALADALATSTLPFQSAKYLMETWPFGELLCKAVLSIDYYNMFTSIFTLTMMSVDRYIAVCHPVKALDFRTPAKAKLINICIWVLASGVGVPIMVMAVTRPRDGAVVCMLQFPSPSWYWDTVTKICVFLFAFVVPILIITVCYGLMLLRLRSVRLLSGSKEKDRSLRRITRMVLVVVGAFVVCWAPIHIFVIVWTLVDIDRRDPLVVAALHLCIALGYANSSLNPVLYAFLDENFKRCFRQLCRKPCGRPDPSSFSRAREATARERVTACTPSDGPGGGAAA

## CC[C@@H]1CN2CC[C@]3(Nc4cccc(OC)c4C3=O)[C@@H]2C[C@@H]1/C(=C\OC)C(=O)OC [Mitragynine pseudoindoxyl, reference compound]
hDOR; [4]
  Ki: 2.93 nM
hMOR [1]; [5]
  Ki: 1.3 nM
hMOR [2]; Table A1, data summary #1
  MOR Emax ± SEM (% DAMGO): 42.4 % DAMGO
hKOR; [6]
  Ki: 150 nM

## CC[C@@H]1CN2CCc3c([nH]c4ccccc34)[C@@H]2C[C@@H]1/C(=C\OC)C(=O)OC [Corynantheidine, reference compound]
hDOR; [7]
  Ki: 2790 ± 171 nM
hDOR; Table B1′, read-out: DOR Ki ± SEM
  Ki: 2410 ± 1200 nM
α2C adrenergic receptor; Table 3-1
  Ki: 135 ± 12.5 nM
hMOR [1]; Table 3-1
  SR: Selectivity Ratio (KiMOR/Kiα2A): 0.97
hMOR [1]; [8]
  Ki: 450 ± 100 nM
hMOR [1]; Table B1′, read-out: MOR Ki ± SEM
  Ki: 2520 ± 372 nM
hMOR [2]; read-out: MOR Emax ± SEM (%)
  Emax: 8.32 ± 3.4%
α2A adrenergic receptor; Table 3-1, 3 independent experiments, read-out: Ki (nM ± SEM) a2A-AR
  Ki: 351 ± 58.7 nM
α2A adrenergic receptor; Table B1′, read-out: alpha2A Ki ± SEM
  Ki: 68 ± 12 nM
hKOR; [9]
  Ki: 4060 ± 969 nM
hKOR; Table B1′, read-out: KOR Ki ± SEM
  Ki: 1030 ± 162 nM

## C[C@@H](NC(=O)[C@@H](N)Cc1ccc(O)cc1)C(=O)NCC(=O)N(C)[C@@H](Cc1ccccc1)C(=O)NCCO [DAMGO, reference compound]
hMOR [2]; read-out: MOR Emax ± SEM (%)
  Emax: 106 ± 2%

## COC(=O)CC1CCN(CCc2c[nH]c3ccccc23)CC1 [Compound 3-24]
hDOR; [7]
  Ki: > 10000 nM
hDOR; Table 3-2, 3 independent experiments, read-out: Ki (nM ± SEM) DOR
  Ki: > 10000 nM
hDOR; Table 3-3, 3 independent experiments, read-out: Ki (nM ± SEM) DOR
  Ki: > 10000 nM
hDOR; Table 3-4, 3 independent experiments, read-out: Ki (nM ± SEM) DOR
  Ki: > 10000 nM
hDOR; Table 3-5, 3 independent experiments, read-out: Ki (nM ± SEM) DOR
  Ki: > 10000 nM
hDOR; Table 3-6, 3 independent experiments, read-out: Ki (nM ± SEM) DOR
  Ki: > 10000 nM
α2C adrenergic receptor; Table 3-2
  Ki: > 10000 nM
α2C adrenergic receptor; Table 3-3
  Ki: > 10000 nM
α2C adrenergic receptor; Table 3-4
  Ki: > 10000 nM
α2C adrenergic receptor; Table 3-5
  Ki: > 10000 nM
α2C adrenergic receptor; Table 3-6
  Ki: > 10000 nM
hMOR [1]; Table 3-1
  SR: Selectivity Ratio (KiMOR/Kiα2A): 1.58
hMOR [1]; Table 3-1, 3 independent experiments, read-out: Ki (nM ± SEM) MOR
  Ki: 2230 ± 42.6 nM
hMOR [1]; Table 3-2
  SR: Selectivity Ratio (KiMOR/Kiα2A): 1.58
hMOR [1]; Table 3-2, 3 independent experiments, read-out: Ki (nM ± SEM) MOR
  Ki: 2230 ± 42.6 nM
hMOR [1]; Table 3-3
  SR: Selectivity Ratio (KiMOR/Kiα2A): 1.58
hMOR [1]; Table 3-3, 3 independent experiments, read-out: Ki (nM ± SEM) MOR
  Ki: 2230 ± 42.6 nM
hMOR [1]; Table 3-4
  SR: Selectivity Ratio (KiMOR/Kiα2A): 1.58
hMOR [1]; Table 3-4, 3 independent experiments, read-out: Ki (nM ± SEM) MOR
  Ki: 2230 ± 42.6 nM
hMOR [1]; Table 3-5
  SR: Selectivity Ratio (KiMOR/Kiα2A): 1.58
hMOR [1]; Table 3-5, 3 independent experiments, read-out: Ki (nM ± SEM) MOR
  Ki: 2230 ± 42.6 nM
hMOR [1]; Table 3-6
  SR: Selectivity Ratio (KiMOR/Kiα2A): 1.58
hMOR [1]; Table 3-6, 3 independent experiments, read-out: Ki (nM ± SEM) MOR
  Ki: 2230 ± 42.6 nM
hMOR [1]; [8]
  Ki: 2230 ± 43 nM
hMOR [2]
  functional character at MOR: low, but measurable, partial agonist activity
hMOR [2]; read-out: MOR Emax ± SEM (%)
  Emax: 23.8 ± 6.7%
hMOR [2]; read-out: Emax at MOR (FIG. 1)
  Emax: 24%
hMOR [2]; read-out: MOR EC50 ± SEM
  EC50: 1220 nM
α2A adrenergic receptor; Ki (nM ± SEM) a2A-AR, Table 3-1, 3 independent experiments
  Ki: 1410 ± 122 nM
α2A adrenergic receptor; Ki (nM ± SEM) a2A-AR, Table 3-2, 3 independent experiments
  Ki: 1410 ± 122 nM
α2A adrenergic receptor; Ki (nM ± SEM) a2A-AR, Table 3-3, 3 independent experiments
  Ki: 1410 ± 122 nM
α2A adrenergic receptor; Ki (nM ± SEM) a2A-AR, Table 3-4, 3 independent experiments
  Ki: 1410 ± 122 nM
α2A adrenergic receptor; Ki (nM ± SEM) a2A-AR, Table 3-6, 3 independent experiments
  Ki: 1410 ± 122 nM
α2A adrenergic receptor; Ki (nM ± SEM) a2A-ar, Table 3-5, 3 independent experiments
  Ki: 1410 ± 122 nM
hKOR; [9]
  Ki: > 10000 nM
hKOR; Table 3-2, 3 independent experiments, read-out: Ki (nM ± SEM) KOR
  Ki: > 10000 nM
hKOR; Table 3-3, 3 independent experiments, read-out: Ki (nM ± SEM) KOR
  Ki: > 10000 nM
hKOR; Table 3-4, 3 independent experiments, read-out: Ki (nM ± SEM) KOR
  Ki: > 10000 nM
hKOR; Table 3-5, 3 independent experiments, read-out: Ki (nM ± SEM) KOR
  Ki: > 10000 nM
hKOR; Table 3-6, 3 independent experiments, read-out: Ki (nM ± SEM) KOR
  Ki: > 10000 nM

## CC[C@@H]1CN2CCc3c([nH]c4cccc(OC)c34)[C@@H]2C[C@@H]1/C(=C\OC)C(=O)NC1CCCCC1 [SUSM-519, (E)-N-cyclohexyl-2-((2S,3S,12bS)-3-ethyl-8-methoxy-1,2,3,4,6,7,12,12b-octahydroindolo[2,3-a]quinolizin-2-yl)-3-methoxyacrylamide]
hDOR; [4]
  Ki: > 10000 nM
hDOR; [10]
  Ki: > 10000 nM
hMOR [1]; [5]
  Ki: 3590 ± 663 nM
hMOR [1]; [11]
  Ki: 2180 ± 603 nM
[3]
  Whole liver clearance, CL int, H: 38.4 mL/min/kg
  RLM stability: 30 min
α2A adrenergic receptor; [12]
  Ki: 933 ± 242 nM
hKOR; [6]
  Ki: 2790 ± 640 nM
hKOR; [13]
  Ki: 2790 ± 640 nM

## CC[C@@H]1CN2CCc3c([nH]c4cccc(OC)c34)[C@@H]2C[C@@H]1/C(=C\OC)C(=O)N(CC)CC [SUSM-509, (E)-N,N-diethyl-2-((2S,3S,12bS)-3-ethyl-8-methoxy-1,2,3,4,6,7,12,12b-octahydroindolo[2,3-a]quinolizin-2-yl)-3-methoxyacrylamide]
hDOR; [4]
  Ki: > 10000 nM
hDOR; [10]
  Ki: > 10000 nM
hMOR [1]; [5]
  Ki: 1130 ± 73.8 nM
hMOR [1]; [11]
  Ki: 1130 ± 73.8 nM
[3]
  RLM stability: <5 min
α2A adrenergic receptor; [14]
  Ki: 5200 ± 621 nM
α2A adrenergic receptor; [12]
  Ki: 2730 ± 488 nM
hKOR; [6]
  Ki: > 10000 nM
hKOR; [13]
  Ki: > 10000 nM

## CC[C@@H]1CN2CCc3c([nH]c4cccc(OC)c34)[C@@H]2C[C@@H]1/C(=C\OC)C(=O)NC1CCCC1 [SUSM-506, (E)-N-cyclopentyl-2-((2S,3S,12bS)-3-ethyl-8-methoxy-1,2,3,4,6,7,12,12b-octahydroindolo[2,3-a]quinolizin-2-yl)-3-methoxyacrylamide]
hDOR; [4]
  Ki: > 10000 nM
hDOR; [10]
  Ki: > 10000 nM
hMOR [1]; [5]
  Ki: 1380 ± 176 nM
hMOR [1]; [11]
  Ki: 1380 ± 176 nM
[3]
  Whole liver clearance, CL int, H: 36.4 mL/min/kg
  RLM stability: 30 min
α2A adrenergic receptor; [14]
  Ki: 8970 ± 572 nM
α2A adrenergic receptor; [12]
  Ki: 5750 ± 568 nM
hKOR; [6]
  Ki: 5850 ± 657 nM
hKOR; [13]
  Ki: 5850 ± 657 nM
